{"source": "ChEMBL document CHEMBL5696442", "about": "“Discovery of type II inhibitors of TGFβ-activated kinase 1 (TAK1) and mitogen-activated protein kinase kinase kinase kinase 2 (MAP4K2)” (J Med Chem, 2015)", "key": {"[1]": {"biological_target": "Tyrosine-protein kinase CSK (Homo sapiens, UniProt P41240)", "test": "Inhibition of CSK ACT labeling site harbouring VSDFGLTKEASSTQDTGK in human Huh-7 cell lysate at 1 uM by KiNativ Profiling analysis relative to control", "assay_type": "subcellular"}, "[2]": {"biological_target": "Serine/threonine-protein kinase Nek6 (Homo sapiens) (UniProt Q9HC98)", "sequence (Q9HC98 whole entry)": "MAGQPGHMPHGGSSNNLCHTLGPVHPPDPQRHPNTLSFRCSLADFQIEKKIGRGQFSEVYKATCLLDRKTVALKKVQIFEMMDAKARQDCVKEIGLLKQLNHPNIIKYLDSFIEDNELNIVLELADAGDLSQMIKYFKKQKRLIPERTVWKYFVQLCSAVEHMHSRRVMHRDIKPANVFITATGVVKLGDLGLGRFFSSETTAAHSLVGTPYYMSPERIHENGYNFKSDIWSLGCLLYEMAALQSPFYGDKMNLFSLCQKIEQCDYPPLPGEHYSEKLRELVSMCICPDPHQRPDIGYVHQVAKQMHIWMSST", "test": "Inhibition of NEK6 Lys2 labeling site harbouring VMHRDIKPANVFITATGVVK in human Huh-7 cells at 1 uM by KiNativ Profiling analysis relative to control", "assay_type": "cell-based"}, "[3]": {"biological_target": "T1, Phosphatidylinositol 5-phosphate 4-kinase type-2 gamma (Homo sapiens) (UniProt Q8TBX8)", "T1 sequence (whole entry)": "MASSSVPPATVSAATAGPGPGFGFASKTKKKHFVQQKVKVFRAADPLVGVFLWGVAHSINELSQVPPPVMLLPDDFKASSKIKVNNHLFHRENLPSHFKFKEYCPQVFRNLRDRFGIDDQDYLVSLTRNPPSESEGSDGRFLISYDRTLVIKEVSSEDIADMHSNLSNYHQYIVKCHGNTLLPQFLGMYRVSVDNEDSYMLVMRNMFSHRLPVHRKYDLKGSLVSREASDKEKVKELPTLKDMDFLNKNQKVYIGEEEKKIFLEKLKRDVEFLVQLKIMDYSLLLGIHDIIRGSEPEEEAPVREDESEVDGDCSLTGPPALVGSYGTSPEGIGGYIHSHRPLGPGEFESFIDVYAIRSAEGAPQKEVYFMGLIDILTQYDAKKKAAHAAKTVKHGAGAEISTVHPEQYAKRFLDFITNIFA", "test": "Inhibition of PIP4K2C ATP labeling site harbouring TLVIKEVSSEDIADMHSNLSNYHQYIVK in human Huh-7 cell lysate at 1 uM by KiNativ Profiling analysis relative to control", "assay_type": "subcellular"}, "[4]": {"biological_target": "T2, Serine/threonine-protein kinase TAO2 (Homo sapiens) (UniProt Q9UL54)", "T2 sequence (whole entry)": "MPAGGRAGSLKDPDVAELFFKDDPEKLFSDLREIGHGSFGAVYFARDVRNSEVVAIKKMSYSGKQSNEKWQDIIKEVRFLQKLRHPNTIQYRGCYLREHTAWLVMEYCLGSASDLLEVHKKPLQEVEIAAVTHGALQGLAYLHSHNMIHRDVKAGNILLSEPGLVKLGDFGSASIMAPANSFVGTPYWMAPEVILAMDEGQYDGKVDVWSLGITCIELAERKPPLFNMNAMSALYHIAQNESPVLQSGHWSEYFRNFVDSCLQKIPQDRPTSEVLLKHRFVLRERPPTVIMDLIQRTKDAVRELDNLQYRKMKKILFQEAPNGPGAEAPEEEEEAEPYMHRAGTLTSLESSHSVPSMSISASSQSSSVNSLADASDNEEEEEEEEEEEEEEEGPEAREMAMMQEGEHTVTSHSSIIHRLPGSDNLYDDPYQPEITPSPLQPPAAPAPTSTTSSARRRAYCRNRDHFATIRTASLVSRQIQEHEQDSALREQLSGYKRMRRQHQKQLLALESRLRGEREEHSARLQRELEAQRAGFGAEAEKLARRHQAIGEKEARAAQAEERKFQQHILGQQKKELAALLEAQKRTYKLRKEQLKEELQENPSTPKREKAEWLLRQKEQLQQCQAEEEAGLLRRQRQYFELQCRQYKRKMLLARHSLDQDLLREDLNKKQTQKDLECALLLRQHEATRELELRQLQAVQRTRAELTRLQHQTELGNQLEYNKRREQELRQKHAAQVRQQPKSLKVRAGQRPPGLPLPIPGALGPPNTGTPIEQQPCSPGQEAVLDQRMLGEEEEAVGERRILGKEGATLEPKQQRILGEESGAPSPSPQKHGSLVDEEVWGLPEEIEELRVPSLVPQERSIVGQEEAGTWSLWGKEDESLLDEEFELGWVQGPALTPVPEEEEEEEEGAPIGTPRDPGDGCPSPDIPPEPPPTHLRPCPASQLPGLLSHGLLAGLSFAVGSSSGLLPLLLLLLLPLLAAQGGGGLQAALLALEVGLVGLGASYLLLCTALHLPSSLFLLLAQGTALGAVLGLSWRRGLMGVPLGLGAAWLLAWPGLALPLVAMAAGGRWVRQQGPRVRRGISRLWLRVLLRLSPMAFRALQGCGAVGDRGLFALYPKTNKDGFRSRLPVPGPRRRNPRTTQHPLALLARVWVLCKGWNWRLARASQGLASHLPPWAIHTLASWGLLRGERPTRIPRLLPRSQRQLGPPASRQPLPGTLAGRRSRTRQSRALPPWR", "test": "Inhibition of TAO2 K2 labeling site in human Huh-7 cells at 1 uM by KiNativ Profiling analysis relative to control", "assay_type": "cell-based"}, "[5]": {"biological_target": "Receptor tyrosine-protein kinase erbB-2 (Homo sapiens) (UniProt P04626)", "test": "Inhibition of ERBB2 (unknown origin) at 10 uM by Ambit Kinomescan binding assay"}, "[6]": {"biological_target": "Death-associated protein kinase 1 (Homo sapiens) (UniProt P53355)", "sequence (P53355 whole entry, looked up)": "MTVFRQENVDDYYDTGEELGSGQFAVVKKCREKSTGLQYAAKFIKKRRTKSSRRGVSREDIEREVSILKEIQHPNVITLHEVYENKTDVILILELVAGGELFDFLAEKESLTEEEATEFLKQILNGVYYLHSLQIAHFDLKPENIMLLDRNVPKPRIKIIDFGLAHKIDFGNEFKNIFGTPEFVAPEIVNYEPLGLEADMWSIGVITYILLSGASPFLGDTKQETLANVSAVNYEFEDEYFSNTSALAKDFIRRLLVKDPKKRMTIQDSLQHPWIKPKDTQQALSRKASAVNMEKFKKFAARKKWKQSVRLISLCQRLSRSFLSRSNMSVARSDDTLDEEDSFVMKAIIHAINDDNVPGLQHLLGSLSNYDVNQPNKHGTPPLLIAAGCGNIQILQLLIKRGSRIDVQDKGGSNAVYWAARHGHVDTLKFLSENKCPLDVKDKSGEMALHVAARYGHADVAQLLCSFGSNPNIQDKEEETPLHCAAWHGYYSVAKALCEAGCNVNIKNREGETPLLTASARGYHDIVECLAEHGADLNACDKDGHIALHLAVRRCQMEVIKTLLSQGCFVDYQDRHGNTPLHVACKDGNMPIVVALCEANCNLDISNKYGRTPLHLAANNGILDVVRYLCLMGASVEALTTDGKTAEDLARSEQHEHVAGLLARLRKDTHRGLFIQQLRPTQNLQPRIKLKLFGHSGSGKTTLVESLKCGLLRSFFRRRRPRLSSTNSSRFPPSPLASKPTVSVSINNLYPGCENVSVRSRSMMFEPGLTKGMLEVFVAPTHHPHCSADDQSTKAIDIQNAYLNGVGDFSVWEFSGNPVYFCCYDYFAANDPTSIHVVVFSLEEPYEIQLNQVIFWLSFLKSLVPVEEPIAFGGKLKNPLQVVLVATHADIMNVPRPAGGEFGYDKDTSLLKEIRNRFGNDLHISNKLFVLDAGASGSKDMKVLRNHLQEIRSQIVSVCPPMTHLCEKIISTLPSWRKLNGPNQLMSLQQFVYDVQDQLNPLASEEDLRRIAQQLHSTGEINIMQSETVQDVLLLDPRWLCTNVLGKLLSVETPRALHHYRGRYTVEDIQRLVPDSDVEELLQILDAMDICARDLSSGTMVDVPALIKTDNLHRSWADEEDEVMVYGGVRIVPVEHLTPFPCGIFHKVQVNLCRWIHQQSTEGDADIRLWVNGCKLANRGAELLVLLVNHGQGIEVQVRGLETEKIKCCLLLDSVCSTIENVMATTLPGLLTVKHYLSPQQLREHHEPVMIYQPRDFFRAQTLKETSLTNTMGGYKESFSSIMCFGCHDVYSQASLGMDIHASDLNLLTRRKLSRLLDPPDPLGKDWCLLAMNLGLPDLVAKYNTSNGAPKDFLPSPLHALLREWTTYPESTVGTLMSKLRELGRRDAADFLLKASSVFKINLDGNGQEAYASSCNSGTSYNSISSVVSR", "test": "Inhibition of DAPK1 (unknown origin) at 10 uM by Ambit Kinomescan binding assay"}, "[7]": {"test": "Inhibition of NEK6/7 K2 labeling site harbouring DIKPANVFITATGVVK in human Huh-7 cells at 10 uM by KiNativ Profiling analysis relative to control", "conditions": "condition cancer"}, "[8]": {"biological_target": "MAP/microtubule affinity-regulating kinase 4 (Homo sapiens) (UniProt Q96L34)", "sequence (Q96L34 whole entry)": "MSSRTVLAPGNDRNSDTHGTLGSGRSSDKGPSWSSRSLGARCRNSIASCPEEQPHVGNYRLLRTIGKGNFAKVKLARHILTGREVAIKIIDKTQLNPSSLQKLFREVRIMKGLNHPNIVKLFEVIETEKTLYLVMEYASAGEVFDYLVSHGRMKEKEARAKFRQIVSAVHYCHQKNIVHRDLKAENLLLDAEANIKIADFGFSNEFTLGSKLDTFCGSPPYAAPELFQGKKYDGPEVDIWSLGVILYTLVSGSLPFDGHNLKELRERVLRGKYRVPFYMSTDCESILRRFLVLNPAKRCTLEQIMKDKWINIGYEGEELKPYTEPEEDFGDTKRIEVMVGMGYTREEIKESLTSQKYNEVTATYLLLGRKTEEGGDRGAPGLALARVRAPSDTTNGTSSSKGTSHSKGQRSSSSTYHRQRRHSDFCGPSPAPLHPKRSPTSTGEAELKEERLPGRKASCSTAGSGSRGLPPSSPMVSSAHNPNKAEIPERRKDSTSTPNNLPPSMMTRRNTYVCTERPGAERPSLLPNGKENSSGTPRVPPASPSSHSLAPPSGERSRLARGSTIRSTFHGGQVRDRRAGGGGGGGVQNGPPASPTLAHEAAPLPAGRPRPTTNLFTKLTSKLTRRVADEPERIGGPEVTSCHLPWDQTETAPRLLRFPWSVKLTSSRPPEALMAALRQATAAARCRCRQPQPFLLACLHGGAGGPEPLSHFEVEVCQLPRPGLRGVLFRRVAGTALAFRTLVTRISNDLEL", "test": "Inhibition of MARK4 (unknown origin) at 10 uM by Ambit Kinomescan binding assay"}, "[9]": {"biological_target": "T1, Phosphatidylinositol 5-phosphate 4-kinase type-2 gamma (Homo sapiens)", "test": "Inhibition of PIP5K2C C2 labeling site in human Huh-7 cells at 1 uM by KiNativ Profiling analysis relative to control", "assay_type": "cell-based"}, "[10]": {"biological_target": "Phosphatidylinositol 4-kinase beta (Homo sapiens) (UniProt Q9UBF8)", "sequence (Q9UBF8 2-816 limits assumed)": "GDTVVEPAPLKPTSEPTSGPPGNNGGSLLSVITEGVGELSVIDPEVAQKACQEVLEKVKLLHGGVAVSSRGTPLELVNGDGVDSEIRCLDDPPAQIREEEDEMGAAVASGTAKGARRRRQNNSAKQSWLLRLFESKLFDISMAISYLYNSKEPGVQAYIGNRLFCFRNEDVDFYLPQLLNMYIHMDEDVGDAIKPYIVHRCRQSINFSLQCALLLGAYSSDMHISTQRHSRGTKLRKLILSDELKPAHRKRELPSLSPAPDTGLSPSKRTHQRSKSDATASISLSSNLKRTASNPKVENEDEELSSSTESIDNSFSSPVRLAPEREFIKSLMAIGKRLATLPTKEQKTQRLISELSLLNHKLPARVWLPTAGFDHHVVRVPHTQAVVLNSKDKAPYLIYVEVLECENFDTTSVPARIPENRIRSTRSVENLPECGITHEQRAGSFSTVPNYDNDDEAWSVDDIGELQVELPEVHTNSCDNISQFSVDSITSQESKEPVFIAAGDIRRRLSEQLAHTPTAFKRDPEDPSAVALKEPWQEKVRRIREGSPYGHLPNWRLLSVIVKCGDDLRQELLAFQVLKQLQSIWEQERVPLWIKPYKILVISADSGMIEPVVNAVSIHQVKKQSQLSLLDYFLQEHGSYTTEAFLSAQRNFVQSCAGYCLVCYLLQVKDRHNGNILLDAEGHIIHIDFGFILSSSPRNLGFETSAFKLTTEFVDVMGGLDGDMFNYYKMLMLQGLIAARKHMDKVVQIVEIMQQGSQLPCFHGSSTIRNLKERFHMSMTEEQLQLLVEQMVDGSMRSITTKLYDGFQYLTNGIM", "test": "Inhibition of PIK4CB (unknown origin) at 1 uM by Ambit Kinomescan binding assay relative to control; values are per cent of control"}, "[11]": {"biological_target": "Tyrosine-protein kinase JAK1 (Homo sapiens) (UniProt P23458)", "sequence (P23458 whole entry, the tested form may be a part)": "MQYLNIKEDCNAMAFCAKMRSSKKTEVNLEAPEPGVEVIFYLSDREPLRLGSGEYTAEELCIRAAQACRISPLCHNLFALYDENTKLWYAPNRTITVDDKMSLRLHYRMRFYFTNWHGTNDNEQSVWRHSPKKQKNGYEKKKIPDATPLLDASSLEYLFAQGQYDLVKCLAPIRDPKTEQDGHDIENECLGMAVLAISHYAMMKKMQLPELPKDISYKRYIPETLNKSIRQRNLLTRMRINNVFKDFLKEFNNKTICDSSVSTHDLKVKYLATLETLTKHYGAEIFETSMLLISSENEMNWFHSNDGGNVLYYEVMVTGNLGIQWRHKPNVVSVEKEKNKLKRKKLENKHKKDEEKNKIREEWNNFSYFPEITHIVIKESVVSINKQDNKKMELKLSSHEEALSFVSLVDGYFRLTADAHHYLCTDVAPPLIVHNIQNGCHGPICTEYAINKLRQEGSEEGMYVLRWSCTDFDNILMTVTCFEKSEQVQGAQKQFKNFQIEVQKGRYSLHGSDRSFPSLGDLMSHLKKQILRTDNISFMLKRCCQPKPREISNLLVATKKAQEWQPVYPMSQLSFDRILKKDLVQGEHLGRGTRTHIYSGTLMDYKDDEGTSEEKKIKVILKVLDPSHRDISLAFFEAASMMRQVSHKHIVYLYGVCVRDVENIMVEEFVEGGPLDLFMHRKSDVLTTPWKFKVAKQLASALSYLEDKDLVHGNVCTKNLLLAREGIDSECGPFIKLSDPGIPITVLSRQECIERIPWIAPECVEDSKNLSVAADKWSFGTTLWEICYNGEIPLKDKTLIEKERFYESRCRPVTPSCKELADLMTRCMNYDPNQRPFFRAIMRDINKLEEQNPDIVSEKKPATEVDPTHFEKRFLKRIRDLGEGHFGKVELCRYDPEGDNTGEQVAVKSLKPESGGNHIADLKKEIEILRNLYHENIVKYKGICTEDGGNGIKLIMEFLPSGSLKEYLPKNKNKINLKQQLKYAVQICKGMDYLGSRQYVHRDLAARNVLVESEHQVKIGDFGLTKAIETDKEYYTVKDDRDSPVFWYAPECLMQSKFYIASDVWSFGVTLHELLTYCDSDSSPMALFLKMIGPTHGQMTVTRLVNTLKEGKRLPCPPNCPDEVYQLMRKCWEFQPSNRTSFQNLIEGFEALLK", "test": "Inhibition of JAK1 JH1catalytic domain (unknown origin) at 1 uM by Ambit Kinomescan binding assay relative to control"}, "[12]": {"biological_target": "Serine/threonine-protein kinase MRCK gamma (Homo sapiens) (UniProt Q6DT37)", "test": "Inhibition of DMPK2 (unknown origin) at 1 uM by Ambit Kinomescan binding assay relative to control; values are per cent of control"}, "[13]": {"test_system": "Epidermal growth factor receptor (Homo sapiens), P00533 [T790M]", "test": "Inhibition of EGFR T790M mutant (unknown origin) at 1 uM by Ambit Kinomescan binding assay relative to control"}, "[14]": {"biological_target": "Mitogen-activated protein kinase kinase kinase kinase 4 (Homo sapiens, UniProt O95819)", "test": "Inhibition of MAP4K4 (unknown origin) at 1 uM by Ambit Kinomescan binding assay relative to control"}, "[15]": {"biological_target": "Dual specificity mitogen-activated protein kinase kinase 1 (Homo sapiens) (UniProt Q02750)", "sequence (Q02750 whole entry)": "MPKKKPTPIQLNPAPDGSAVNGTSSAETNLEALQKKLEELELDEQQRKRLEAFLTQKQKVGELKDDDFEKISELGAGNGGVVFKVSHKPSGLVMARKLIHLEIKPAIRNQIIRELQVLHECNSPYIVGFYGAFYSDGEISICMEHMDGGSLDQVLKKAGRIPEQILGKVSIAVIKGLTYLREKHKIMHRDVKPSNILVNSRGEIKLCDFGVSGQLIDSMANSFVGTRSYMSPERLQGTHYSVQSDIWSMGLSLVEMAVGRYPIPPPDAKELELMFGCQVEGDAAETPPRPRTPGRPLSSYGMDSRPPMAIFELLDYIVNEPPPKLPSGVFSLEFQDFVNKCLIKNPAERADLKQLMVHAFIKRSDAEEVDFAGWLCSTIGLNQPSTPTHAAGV", "test": "Inhibition of MAP2K1 Lys2 labeling site harbouring IMHRDVKPSNILVNSR in human A-375 cells at 5 uM by KiNativ Profiling analysis relative to control", "assay_type": "cell-based"}}, "note": "The source made the active and inactive calls. No cut-off for these calls is given here."}
{"smiles": "CNc1cc(Oc2cc(C(=O)Nc3cc(N4CCN(C)CC4)cc(C(F)(F)F)c3)ccc2C)ncn1", "values": [{"measurement": "inhibition", "setting": "[1]", "value": 7.9, "unit": "%"}, {"measurement": "inhibition", "setting": "[2]", "value": 6.9, "unit": "%"}, {"measurement": "inhibition", "setting": "[3]", "value": -3.6, "unit": "%"}]}
{"smiles": "CCN1CCN(Cc2ccc(NC(=O)c3ccc(C)c(Oc4ccnc5[nH]ccc45)c3)cc2C(F)(F)F)CC1", "values": [{"measurement": "inhibition", "setting": "[4]", "value": 4.7, "unit": "%"}, {"measurement": "inhibition", "setting": "[5]", "value": "inactive"}, {"measurement": "inhibition", "setting": "[6]", "value": "inactive"}, {"measurement": "inhibition at 10 µM", "setting": "[7]", "value": 2.8, "unit": "%"}, {"measurement": "inhibition", "setting": "[8]", "value": "inactive"}, {"measurement": "inhibition", "setting": "[9]", "value": 1.3, "unit": "%"}]}
{"smiles": "CCN1CCN(Cc2ccc(NC(=O)c3ccc(C)c(/C=C/c4cnc5[nH]ccc5c4OC)c3)cc2C(F)(F)F)CC1", "values": [{"measurement": "residual activity", "setting": "[10]", "value": 100, "unit": "%"}, {"measurement": "inhibition", "setting": "[11]", "value": 76, "unit": "%"}, {"measurement": "residual activity", "setting": "[12]", "value": 76, "unit": "%"}, {"measurement": "inhibition", "setting": "[13]", "value": 68, "unit": "%"}, {"measurement": "inhibition", "setting": "[14]", "value": 1.8, "unit": "%"}, {"measurement": "inhibition", "setting": "[15]", "value": 34.7, "unit": "%"}]}
